Source: ChEMBL document CHEMBL1201862, “PubChem BioAssay data set” (2004)
Active and inactive are the calls of the source.

What was measured:
Orexin receptor type 2 [1] = target: T1, Orexin receptor type 2 (Homo sapiens, UniProt O43614); experiment: Counterscreen assay for antagonists of the orexin 1 receptor (OX1R; HCRTR1): Fluorescence-based cell-based dose response assay for antagonists of the orexin 2 receptor (OX2R; HCRTR2), run by assay provider.; assay type: functional
T1 sequence (O43614 whole entry): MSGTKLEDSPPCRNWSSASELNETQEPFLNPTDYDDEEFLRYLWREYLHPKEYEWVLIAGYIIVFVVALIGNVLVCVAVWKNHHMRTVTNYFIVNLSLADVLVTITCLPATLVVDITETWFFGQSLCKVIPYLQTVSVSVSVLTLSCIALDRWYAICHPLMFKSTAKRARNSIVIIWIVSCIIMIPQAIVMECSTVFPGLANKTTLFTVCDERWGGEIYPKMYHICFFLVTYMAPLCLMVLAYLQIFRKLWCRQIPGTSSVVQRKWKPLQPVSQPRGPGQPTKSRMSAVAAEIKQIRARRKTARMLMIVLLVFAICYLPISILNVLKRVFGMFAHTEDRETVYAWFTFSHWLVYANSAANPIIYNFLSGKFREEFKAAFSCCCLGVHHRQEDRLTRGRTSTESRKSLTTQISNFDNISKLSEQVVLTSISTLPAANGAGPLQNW

Streptokinase A = target: T2, Streptokinase A (Streptococcus pyogenes serotype M1, UniProt P10520); experiment: S. pyogenes streptokinase expression inhibitors, potency, dose response, plasminogen activation absorbance, OD405 (AID 1914); assay type: functional, Streptococcus pyogenes M1 GAS;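 note: secreted streptokinase activity via plasminogen activation per viability signal from cell pellet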
T2 sequence (P10520 whole entry): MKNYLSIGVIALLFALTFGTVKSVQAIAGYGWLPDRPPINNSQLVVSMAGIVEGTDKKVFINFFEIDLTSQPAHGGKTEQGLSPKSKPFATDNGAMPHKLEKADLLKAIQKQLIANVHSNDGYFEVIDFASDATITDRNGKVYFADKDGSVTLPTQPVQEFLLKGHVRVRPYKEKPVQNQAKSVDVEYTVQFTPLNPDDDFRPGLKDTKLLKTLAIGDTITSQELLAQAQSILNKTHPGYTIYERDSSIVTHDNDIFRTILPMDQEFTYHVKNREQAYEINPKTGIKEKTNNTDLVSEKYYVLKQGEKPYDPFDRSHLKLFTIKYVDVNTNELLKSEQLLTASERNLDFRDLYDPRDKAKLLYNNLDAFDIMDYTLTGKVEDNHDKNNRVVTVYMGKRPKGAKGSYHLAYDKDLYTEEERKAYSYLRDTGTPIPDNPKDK

[2] = target: T3, Orexin/Hypocretin receptor type 1 (Homo sapiens, UniProt O43613); experiment: (§1) Fluorescence-based cell-based high throughput dose response assay for antagonists of the orexin 1 receptor (OX1R; HCRTR1). [Related pubchem assays (depositor defined):AID434989, AID435008, AID463079, AID485270, AID492963, AID492964, AID492965, AID493232, AID504717, AID504718]; assay type: functional
T3 sequence (O43613 whole entry): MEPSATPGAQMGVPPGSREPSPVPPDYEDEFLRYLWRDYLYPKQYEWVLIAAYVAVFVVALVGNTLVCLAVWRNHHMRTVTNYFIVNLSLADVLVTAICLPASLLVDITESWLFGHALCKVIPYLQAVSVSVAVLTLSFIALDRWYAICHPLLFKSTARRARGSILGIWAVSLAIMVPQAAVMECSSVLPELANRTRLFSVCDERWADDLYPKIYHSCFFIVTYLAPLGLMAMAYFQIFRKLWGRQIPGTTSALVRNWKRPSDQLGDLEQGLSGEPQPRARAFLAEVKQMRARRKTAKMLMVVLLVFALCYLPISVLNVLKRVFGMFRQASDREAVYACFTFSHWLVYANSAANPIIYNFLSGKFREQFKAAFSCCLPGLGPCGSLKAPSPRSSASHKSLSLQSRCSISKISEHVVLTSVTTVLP

Orexin receptor type 2 [3] = target: T1, Orexin receptor type 2; experiment: Counterscreen assay for antagonists of the orexin 1 receptor (OX1R; HCRTR1): Homogeneous Time Resolved Fluorescence (HTRF)-based cell-based dose response assay for antagonists of the orexin 2 receptor (OX2R; HCRTR2), run by assay provider.; assay type: functional
Streptococcus = experiment: Group A Streptococcus viability loss, dose response, counter-screen for streptokinase expression inhibitor project, luminescence, BacTiterGlo (AID 1915); assay type: functional, organism-based;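 note: potency for reduction of bacterial viability or growth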
[4] = tested on: Streptococcus sp. 'group A'; experiment: growth inhibition of control SK(-) GAS strain, dose response, counter-screen for streptokinase expression inhibitor project, luminescence, kanamycin, BacTiterGlo, confirmation (AID 1900); assay type: functional, organism-based
[5] = (§2) Counterscreen for antagonists of the orexin 1 receptor (OX1R; HCRTR1): Fluorescence-based cell-based high throughput dose response assay to identify antagonists of the parental CHO cell line. [Related pubchem assays (depositor defined):AID434989, AID435008, AID463079, AID485270, AID492963, AID492964, AID492965, AID493232, AID504699, AID504701]; assay type: functional
[6] = target: T3, Orexin/Hypocretin receptor type 1; experiment: as §1, with “Homogeneous Time Resolved Fluorescence (HTRF)-based” for “Fluorescence-based”; assay type: functional
CHO-K1 = experiment: as §2, with “Homogeneous time resolved fluorescence (HTRF)-based” for “Fluorescence-based”, “cell-based” for “cell-based high throughput”, “CHO-K1” for “CHO”; assay type: functional; details: Cricetulus griseus;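 note: potency for inhibition of ATP-stimulated IP1 production as antagonists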
Melanocortin receptor 4 = Melanocortin receptor 4 (Homo sapiens, UniProt P32245); experiment: MC4R antagonist potency on cAMP, dose response, cell-based, TR-FRET, biased antagonists (AID 602298); assay type: functional;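 note: antagonist potency against agonist-stimulated cAMP production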
[7] = nonselective inhibitors of cellular cAMP signaling, dose response, counter-screen for MC4R biased antagonist project, cell-based, TR-FRET cAMP detection (AID 602305); assay type: functional;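 note: U2OS cells stimulated with forskolin near its EC80 as the cAMP inducer; potency is for inhibition of forskolin-stimulated cAMP signaling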
[8] = target: Benomyl/methotrexate resistance protein (Candida albicans, UniProt P28873); experiment: CaMdr1 efflux pump inhibitor potency, dose response, singleplex, Cherry Pick1 hits (AID 588608); assay type: functional
Benomyl/methotrexate resistance protein, sequence (P28873 whole entry): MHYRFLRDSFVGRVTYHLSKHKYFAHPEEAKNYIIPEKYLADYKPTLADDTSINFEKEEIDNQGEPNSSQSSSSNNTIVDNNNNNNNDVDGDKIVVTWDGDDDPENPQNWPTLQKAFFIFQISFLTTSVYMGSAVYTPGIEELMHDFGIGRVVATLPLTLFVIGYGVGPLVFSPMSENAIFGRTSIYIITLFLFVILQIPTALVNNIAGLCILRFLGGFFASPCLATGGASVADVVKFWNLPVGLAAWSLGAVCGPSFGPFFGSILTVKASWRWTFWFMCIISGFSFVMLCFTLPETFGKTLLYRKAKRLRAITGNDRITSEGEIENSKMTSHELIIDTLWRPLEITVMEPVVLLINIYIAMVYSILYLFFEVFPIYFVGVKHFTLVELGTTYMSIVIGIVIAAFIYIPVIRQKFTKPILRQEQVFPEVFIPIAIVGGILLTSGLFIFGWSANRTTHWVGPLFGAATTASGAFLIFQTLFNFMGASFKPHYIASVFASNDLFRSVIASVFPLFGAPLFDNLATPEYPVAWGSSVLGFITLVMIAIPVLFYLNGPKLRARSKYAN

Melanocortin receptor 4, sequence (P32245 whole entry): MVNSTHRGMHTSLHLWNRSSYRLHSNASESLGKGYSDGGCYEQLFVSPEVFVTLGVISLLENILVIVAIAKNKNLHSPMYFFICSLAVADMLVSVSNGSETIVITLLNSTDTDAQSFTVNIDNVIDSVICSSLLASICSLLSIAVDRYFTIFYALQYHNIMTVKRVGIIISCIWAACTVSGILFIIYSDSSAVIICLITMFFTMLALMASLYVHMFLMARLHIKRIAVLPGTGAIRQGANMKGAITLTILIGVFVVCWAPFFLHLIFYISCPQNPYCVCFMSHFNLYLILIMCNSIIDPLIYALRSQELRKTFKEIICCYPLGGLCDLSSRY

With `Cc1cnc(NC(=O)c2cc3c(C)nn(-c4ccccc4)c3s2)s1` the IC50 (Orexin receptor type 2 [1]) was 60.4 µM (inactive), the EC50 (Streptokinase A) was > 150 µM (not active) and the IC50 [2] was 2.37 µM (active). For the same compound, the IC50 (Orexin receptor type 2 [3]) was > 50 µM (inactive), the EC50 (Streptococcus) was > 150 µM (not active) and the EC50 [4] was 2.5 µM (active). The IC50 [5] was > 49.7 µM (inactive), the IC50 [6] was 2.21 µM (active) and the IC50 (CHO-K1) was > 66.2 µM (inactive).
In the case of `O=S(=O)(c1ccc(Br)c2nsnc12)N1CCOCC1`, the IC50 (Melanocortin receptor 4) is reported as > 64.6 µM (inactive) and the IC50 [7] is reported as > 64.6 µM (inactive).
In the case of `COc1ccccc1-c1sc2ccccc2c1-c1ccc(OCCN2CCCCC2)cc1`, the EC50 [8] is reported as 18.9 µM (active).
In the case of `COc1ccc([C@@H]2CC=C(C(=O)O)[C@H](c3cccc(Cl)c3)N2S(=O)(=O)c2ccccc2C)cc1`, the IC50 (Orexin receptor type 2 [1]) is reported as 17.1 µM (inactive), the IC50 [2] is reported as 14.6 µM (inactive) and the IC50 (Orexin receptor type 2 [3]) is reported as 3.32 µM (active). The IC50 [5] was > 49.7 µM (inactive), the IC50 [6] was 1.09 µM (active) and the IC50 (CHO-K1) was > 66.2 µM (inactive).
